Like-named read-outs stand apart in the source and are kept apart here. Marks after values point to notes of the source that are not given here.
What was measured:
[1] = test system: HEK293T; type: cell-based, human
[2] = test system: HepG2, Caco-2, RAW 264.7, and HEK 293T cells
[3] = test system: HEK 293T cells; conditions: for comet tails (percentage of DNA): 25 µM, 24 h
[4] = test system: Caco-2 cells
[5] = test system: cells; conditions: cited from earlier work
[6] = test system: human colon adenocarcinoma HT29 cells; conditions: cited from earlier work
[7] = test system: Caco-2 cells; conditions: cited from earlier work
[8] = in vitro; conditions: human (HepG2, Caco-2, HEK 293T); mouse (RAW 264.7)
[9] = test system: Caco-2 cells; conditions: cited from earlier work; remark: listed apart in the source
[10] = molecular target: P-gp (Homo sapiens, UniProt P08183)
Sequence of P-gp (P08183 whole entry, looked up): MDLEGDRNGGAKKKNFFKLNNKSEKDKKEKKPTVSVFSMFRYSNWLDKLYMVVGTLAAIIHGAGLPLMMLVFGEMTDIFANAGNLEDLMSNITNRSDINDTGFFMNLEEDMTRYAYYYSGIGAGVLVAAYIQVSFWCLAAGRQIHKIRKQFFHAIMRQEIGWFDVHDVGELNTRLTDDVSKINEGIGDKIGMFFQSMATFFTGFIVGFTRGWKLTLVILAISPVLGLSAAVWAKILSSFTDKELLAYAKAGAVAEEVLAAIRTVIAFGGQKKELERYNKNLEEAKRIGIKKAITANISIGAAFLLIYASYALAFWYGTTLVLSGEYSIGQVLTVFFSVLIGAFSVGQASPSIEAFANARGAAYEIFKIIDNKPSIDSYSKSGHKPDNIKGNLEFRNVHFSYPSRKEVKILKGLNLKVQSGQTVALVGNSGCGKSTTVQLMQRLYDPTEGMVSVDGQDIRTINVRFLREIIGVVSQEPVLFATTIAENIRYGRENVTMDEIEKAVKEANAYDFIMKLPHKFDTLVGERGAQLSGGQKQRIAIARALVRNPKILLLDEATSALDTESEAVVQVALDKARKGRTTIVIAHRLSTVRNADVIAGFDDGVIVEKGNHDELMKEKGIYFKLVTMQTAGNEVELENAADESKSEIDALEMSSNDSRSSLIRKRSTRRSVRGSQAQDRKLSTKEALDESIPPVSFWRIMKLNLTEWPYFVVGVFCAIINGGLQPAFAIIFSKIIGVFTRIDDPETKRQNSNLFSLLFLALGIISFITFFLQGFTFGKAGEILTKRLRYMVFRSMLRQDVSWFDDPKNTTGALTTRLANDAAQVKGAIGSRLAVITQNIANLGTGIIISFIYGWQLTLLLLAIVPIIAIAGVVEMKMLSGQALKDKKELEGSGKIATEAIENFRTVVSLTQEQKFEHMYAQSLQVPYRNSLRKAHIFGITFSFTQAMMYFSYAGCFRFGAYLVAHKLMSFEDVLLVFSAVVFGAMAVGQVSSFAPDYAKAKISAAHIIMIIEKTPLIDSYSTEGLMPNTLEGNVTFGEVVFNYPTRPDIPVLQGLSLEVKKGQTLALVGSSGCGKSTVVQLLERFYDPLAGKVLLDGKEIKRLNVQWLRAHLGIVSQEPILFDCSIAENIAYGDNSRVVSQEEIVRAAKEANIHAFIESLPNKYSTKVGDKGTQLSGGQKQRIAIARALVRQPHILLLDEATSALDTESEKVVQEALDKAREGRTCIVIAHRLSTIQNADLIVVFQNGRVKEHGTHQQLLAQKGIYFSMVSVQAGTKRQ

[11] = test system: human small intestinal cells; conditions: read-out: IC50 (not achieved up to); cited from earlier work
[12] = human (Caco-2), mouse (RAW 264.7)

Row | Structure (SMILES) | combination index, mixture of DAS (6.58 nM) [1] | combination index, mixture of HT-2 (21.22 nM) [1] | combination index, mixture of T-2 (3.87 nM) [1] | type of interaction, mixture of DAS (6.58 nM) [1] | type of interaction, mixture of HT-2 (21.22 nM) [1] | type of interaction, mixture of T-2 (3.87 nM) [1] | percentage of DNA in comet tail with respect to the negative control [3] | concentration with statistically significant decrease in viability of cells [5] | transepithelial transport, Apical Medium [4, 12] | transepithelial transport, Basolateral Medium [4, 12] | transepithelial transport, Caco-2 Cells [4, 12] | transepithelial transport, Raw 264.7 Cells [4, 12] | transepithelial transport, Total [4, 12] | IC50 [8] | further results
1 | COc1cc(O)c2c(=O)oc3cc(O)cc(C)c3c2c1 [AME, alternariol-9-methyl ether] | 0.90 ± 0.05 Add | 0.92 ± 0.06 Add | 0.97 ± 0.07 Add | 0.90 ± 0.05 Add (key: Syn: Combination index (CI) < 0.9; Add: 0.9 ≤ CI ≤ 1; Ant: CI > 1) | 0.92 ± 0.06 Add (key: Syn: Combination index (CI) < 0.9; Add: 0.9 ≤ CI ≤ 1; Ant: CI > 1) | 0.97 ± 0.07 Add (key: Syn: Combination index (CI) < 0.9; Add: 0.9 ≤ CI ≤ 1; Ant: CI > 1) | significantly increased | 25 µM |  |  |  |  |  |  | IC50 [2]: > 50 nM; comet tails (percentage of DNA) [3]: ~42%; metabolites found by non-target U-HPLC-MS analysis [4]: 3-O-glucuronide, 7-O-glucuronide, and 3-O-sulfate; transepithelial transport, Apical Medium [4]: 35.92 ± 1.53^c %; transepithelial transport, Basolateral Medium [4]: 17.68 ± 0.86^bcd %; transepithelial transport, Caco-2 Cells [4]: 0.49 ± 0.02^ab %; transepithelial transport, Raw 264.7 Cells [4]: 0.01 ± 0.00^ab %; transepithelial transport, Total [4]: 53.94 ± 1.59^bc %; concentrations significantly increasing the rate of DNA breaks [6]: ≥ 1000 nM
2 | C[C@H]1CCC[C@@H](O)CCC/C=C/c2cc(O)cc(O)c2C(=O)O1 [β-ZEA] |  |  |  |  |  |  |  |  |  |  |  |  |  |  | share of total metabolites produced by Caco-2 cells [7]: 32%
3 | CC[C@H](C)[C@H]1C(=O)O[C@H](C(C)C)C(=O)N(C)[C@@H](C(C)C)C(=O)O[C@H](C(C)C)C(=O)N(C)[C@@H](C(C)C)C(=O)O[C@H](C(C)C)C(=O)N1C [ENN-B1, enniatin B1] | 0.82 ± 0.06 Syn | 0.90 ± 0.05 Add | 0.88 ± 0.07 Syn | 0.82 ± 0.06 Syn (key: Syn: Combination index (CI) < 0.9; Add: 0.9 ≤ CI ≤ 1; Ant: CI > 1) | 0.90 ± 0.05 Add (key: Syn: Combination index (CI) < 0.9; Add: 0.9 ≤ CI ≤ 1; Ant: CI > 1) | 0.88 ± 0.07 Syn (key: Syn: Combination index (CI) < 0.9; Add: 0.9 ≤ CI ≤ 1; Ant: CI > 1) |  | 2 µM | 10.46 ± 2.43^a % | 28.16 ± 3.37^e % | 0.51 ± 0.03^ab % | 0.60 ± 0.10^c % | 39.72 ± 4.74^ab % | > 50 nM | concentration with significant DNA damage [9]: 3000 nM
4 | Cc1cc(O)cc2oc(=O)c3c(O)cc(O)cc3c12 [AOH, alternariol] | 0.91 ± 0.07 Add | 0.92 ± 0.02 Add | 1.00 ± 0.09 Add | 0.91 ± 0.07 Add (key: Syn: Combination index (CI) < 0.9; Add: 0.9 ≤ CI ≤ 1; Ant: CI > 1) | 0.92 ± 0.02 Add (key: Syn: Combination index (CI) < 0.9; Add: 0.9 ≤ CI ≤ 1; Ant: CI > 1) | 1.00 ± 0.09 Add (key: Syn: Combination index (CI) < 0.9; Add: 0.9 ≤ CI ≤ 1; Ant: CI > 1) | significantly increased | 50 µM | 39.00 ± 22.02^cd % | 59.97 ± 2.86^h % | 0.04 ± 0.02^a % | 0.07 ± 0.02^h % | 99.08 ± 24.47^e % | > 50 nM | comet tails (percentage of DNA) [3]: about 55%; P-gp activation (ATP consumption) [10]: activated P-gp in dose-dependent manner; metabolites found by non-target U-HPLC-MS analysis [4, 12]: 3-O-glucuronide and 9-O-glucuronide; concentrations significantly increasing the rate of DNA breaks [6]: ≥ 1000 nM
5 | CC(C)[C@H]1C(=O)O[C@H](C(C)C)C(=O)N(C)[C@@H](C(C)C)C(=O)O[C@H](C(C)C)C(=O)N(C)[C@@H](C(C)C)C(=O)O[C@H](C(C)C)C(=O)N1C [ENN-B, enniatin B] | 0.79 ± 0.08 Syn | 0.87 ± 0.05 Syn | 1.11 ± 0.10 Ant | 0.79 ± 0.08 Syn (key: Syn: Combination index (CI) < 0.9; Add: 0.9 ≤ CI ≤ 1; Ant: CI > 1) | 0.87 ± 0.05 Syn (key: Syn: Combination index (CI) < 0.9; Add: 0.9 ≤ CI ≤ 1; Ant: CI > 1) | 1.11 ± 0.10 Ant (key: Syn: Combination index (CI) < 0.9; Add: 0.9 ≤ CI ≤ 1; Ant: CI > 1) |  | 2 µM | 24.08 ± 3.20^abc % | 25.49 ± 4.31^e % | 1.15 ± 0.25^b % | 0.31 ± 0.03^b % | 51.02 ± 7.70^bc % | > 50 nM | metabolites found by non-target U-HPLC-MS analysis [4, 12]: metabolite M6; genotoxic effect ([9]; 3 µM): did not show genotoxic effect
6 | COc1c(C)c2c(c(O)c1C/C=C(\C)CCC(=O)O)C(=O)OC2 [MPA, mycophenolic acid, reference compound] | 0.83 ± 0.07 Syn | 0.90 ± 0.04 Add | 0.85 ± 0.05 Syn | 0.83 ± 0.07 Syn (key: Syn: Combination index (CI) < 0.9; Add: 0.9 ≤ CI ≤ 1; Ant: CI > 1) | 0.90 ± 0.04 Add (key: Syn: Combination index (CI) < 0.9; Add: 0.9 ≤ CI ≤ 1; Ant: CI > 1) | 0.85 ± 0.05 Syn (key: Syn: Combination index (CI) < 0.9; Add: 0.9 ≤ CI ≤ 1; Ant: CI > 1) | no significant DNA damage |  | 57.27 ± 0.79^ef % | 39.77 ± 0.52^f % | 0.00 ± 0.00^a % | 0.02 ± 0.00^a % | 97.07 ± 0.27^e % | > 50 nM | IC50 [11]: > 156 nM
7 | C[C@H]1CCC[C@H](O)CCC/C=C/c2cc(O)cc(O)c2C(=O)O1 [α-ZEA] |  |  |  |  |  |  |  |  |  |  |  |  |  |  | share of total metabolites produced by Caco-2 cells [7]: 41%
